Measured values: the supplement of paper PMC10307832

Key:
Test in all cases: relative viability (nuclei count vs DMSO), 5 days (fraction); higher = more cells survive
UMC-11 = tested on: UMC-11
Summary of the method: (§1)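 Relative viability divides the nuclei count in treated wells by that in vehicle wells. Lung cancer cell lines were seeded in 1536-well plates, dosed by pin tool the next day, and fixed and stained after 5 days in one step with final 0.05% Triton X-100, 1% formaldehyde and 1 ug/ml Hoechst. Dosing was a single drug or a fixed anchor-drug dose plus five library-drug doses (not always all listed) in √10 steps, and values are medians of duplicate plates imaged at 4×.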

RERF-LC-KJ = tested on: RERF-LC-KJ
Summary of the method: as §1

HCC-78 = tested on: HCC-78
Summary of the method: as §1

SW 1573 = tested on: SW 1573
Summary of the method: as §1

EPLC-272H = tested on: EPLC-272H
Summary of the method: as §1

NCI-H1755 = tested on: NCI-H1755
Summary of the method: as §1

NCI-H1993 = tested on: NCI-H1993
Summary of the method: as §1

HARA = tested on: HARA
Summary of the method: as §1

NCI-H596 = tested on: NCI-H596
Summary of the method: as §1

NCI-H838 = tested on: NCI-H838
Summary of the method: as §1

COR-L 105 = tested on: COR-L 105
Summary of the method: as §1

SK-MES-1 = tested on: SK-MES-1
Summary of the method: as §1

NCI-H1975 = tested on: NCI-H1975
Summary of the method: as §1

NCI-H2228 = tested on: NCI-H2228
Summary of the method: as §1

HCC-366 = tested on: HCC-366
Summary of the method: as §1

PC-3 [JPC-3] = tested on: PC-3 [JPC-3]
Summary of the method: as §1

NCI-H520 = tested on: NCI-H520
Summary of the method: as §1

HCC-827 = tested on: HCC-827
Summary of the method: as §1

LCLC-103H = tested on: LCLC-103H
Summary of the method: as §1

HCC-44 = tested on: HCC-44
Summary of the method: as §1

LOU-NH91 = tested on: LOU-NH91
Summary of the method: as §1

NCI-H1651 = tested on: NCI-H1651
Summary of the method: as §1

NCI-H2170 = tested on: NCI-H2170
Summary of the method: as §1

NCI-H1793 = tested on: NCI-H1793
Summary of the method: as §1

Cc1cn(-c2cc(NC(=O)c3ccc(C)c(Nc4nccc(-c5cccnc5)n4)c3)cc(C(F)(F)F)c2)cn1 [Nilotinib] + Nc1nc2[nH]cc(CCc3ccc(C(=O)N[C@@H](CCC(=O)O)C(=O)O)cc3)c2c(=O)[nH]1 [Pemetrexed] (partner 0.2 µM)
relative viability (UMC-11; first compound 0.001 µM): 0.789
relative viability (UMC-11; first compound 0.003162 µM): 0.914
relative viability (UMC-11; first compound 0.01 µM): 0.857
relative viability (UMC-11; first compound 0.03162 µM): 0.495
relative viability (UMC-11; first compound 0.1 µM): 0.631
relative viability (RERF-LC-KJ; first compound 0.001 µM): 0.508
relative viability (RERF-LC-KJ; first compound 0.003162 µM): 0.6
relative viability (RERF-LC-KJ; first compound 0.01 µM): 0.454
relative viability (RERF-LC-KJ; first compound 0.03162 µM): 0.422
relative viability (RERF-LC-KJ; first compound 0.1 µM): 0.274
relative viability (HCC-78; first compound 0.001 µM): 0.897
relative viability (HCC-78; first compound 0.003162 µM): 0.654
relative viability (HCC-78; first compound 0.01 µM): 0.836
relative viability (HCC-78; first compound 0.03162 µM): 0.8
relative viability (HCC-78; first compound 0.1 µM): 0.935
relative viability (SW 1573; first compound 0.001 µM): 0.801
relative viability (SW 1573; first compound 0.003162 µM): 0.994
relative viability (SW 1573; first compound 0.01 µM): 0.91
relative viability (SW 1573; first compound 0.03162 µM): 0.541
relative viability (SW 1573; first compound 0.1 µM): 0.171
relative viability (EPLC-272H; first compound 0.001 µM): 0.239
relative viability (EPLC-272H; first compound 0.003162 µM): 0.324
relative viability (EPLC-272H; first compound 0.01 µM): 0.195
relative viability (EPLC-272H; first compound 0.03162 µM): 0.309
relative viability (EPLC-272H; first compound 0.1 µM): 0.171
relative viability (NCI-H1755; first compound 0.001 µM): 0.41
relative viability (NCI-H1755; first compound 0.003162 µM): 0.383
relative viability (NCI-H1755; first compound 0.01 µM): 0.328
relative viability (NCI-H1755; first compound 0.03162 µM): 0.306
relative viability (NCI-H1755; first compound 0.1 µM): 0.361
relative viability (NCI-H1993; first compound 0.001 µM): 0.574
relative viability (NCI-H1993; first compound 0.003162 µM): 0.685
relative viability (NCI-H1993; first compound 0.01 µM): 0.649
relative viability (NCI-H1993; first compound 0.03162 µM): 0.589
relative viability (NCI-H1993; first compound 0.1 µM): 0.367
relative viability (HARA; first compound 0.001 µM): 0.311
relative viability (HARA; first compound 0.003162 µM): 0.235
relative viability (HARA; first compound 0.01 µM): 0.198
relative viability (HARA; first compound 0.03162 µM): 0.184
relative viability (HARA; first compound 0.1 µM): 0.214
relative viability (NCI-H596; first compound 0.001 µM): 0.49
relative viability (NCI-H596; first compound 0.003162 µM): 0.423
relative viability (NCI-H596; first compound 0.01 µM): 0.491
relative viability (NCI-H596; first compound 0.03162 µM): 0.513
relative viability (NCI-H596; first compound 0.1 µM): 0.371
relative viability (NCI-H838; first compound 0.001 µM): 0.246
relative viability (NCI-H838; first compound 0.003162 µM): 0.258
relative viability (NCI-H838; first compound 0.01 µM): 0.261
relative viability (NCI-H838; first compound 0.03162 µM): 0.252
relative viability (NCI-H838; first compound 0.1 µM): 0.228
relative viability (COR-L 105; first compound 0.001 µM): 0.975
relative viability (COR-L 105; first compound 0.003162 µM): 1.17
relative viability (COR-L 105; first compound 0.01 µM): 1.55
relative viability (COR-L 105; first compound 0.03162 µM): 1.13
relative viability (COR-L 105; first compound 0.1 µM): 1.15
relative viability (SK-MES-1; first compound 0.001 µM): 0.958
relative viability (SK-MES-1; first compound 0.003162 µM): 0.841
relative viability (SK-MES-1; first compound 0.01 µM): 1.05
relative viability (SK-MES-1; first compound 0.03162 µM): 0.868
relative viability (SK-MES-1; first compound 0.1 µM): 0.503
relative viability (NCI-H1975; first compound 0.001 µM): 0.294
relative viability (NCI-H1975; first compound 0.003162 µM): 0.298
relative viability (NCI-H1975; first compound 0.01 µM): 0.257
relative viability (NCI-H1975; first compound 0.03162 µM): 0.211
relative viability (NCI-H1975; first compound 0.1 µM): 0.235
relative viability (NCI-H2228; first compound 0.001 µM): 0.358
relative viability (NCI-H2228; first compound 0.003162 µM): 0.357
relative viability (NCI-H2228; first compound 0.01 µM): 0.282
relative viability (NCI-H2228; first compound 0.03162 µM): 0.216
relative viability (NCI-H2228; first compound 0.1 µM): 0.165
relative viability (HCC-366; first compound 0.001 µM): 0.157
relative viability (HCC-366; first compound 0.003162 µM): 0.129
relative viability (HCC-366; first compound 0.01 µM): 0.163
relative viability (HCC-366; first compound 0.03162 µM): 0.106
relative viability (HCC-366; first compound 0.1 µM): 0.115
relative viability (PC-3 [JPC-3]; first compound 0.001 µM): 1.02
relative viability (PC-3 [JPC-3]; first compound 0.01 µM): 0.889
relative viability (PC-3 [JPC-3]; first compound 0.03162 µM): 1.05
relative viability (PC-3 [JPC-3]; first compound 0.1 µM): 0.599
relative viability (NCI-H520; first compound 0.001 µM): 0.591
relative viability (NCI-H520; first compound 0.003162 µM): 0.674
relative viability (NCI-H520; first compound 0.01 µM): 0.717
relative viability (NCI-H520; first compound 0.03162 µM): 0.578
relative viability (NCI-H520; first compound 0.1 µM): 0.556
relative viability (HCC-827; first compound 0.001 µM): 0.272
relative viability (HCC-827; first compound 0.003162 µM): 0.224
relative viability (HCC-827; first compound 0.03162 µM): 0.217
relative viability (HCC-827; first compound 0.1 µM): 0.245
relative viability (LCLC-103H; first compound 0.001 µM): 0.447
relative viability (LCLC-103H; first compound 0.003162 µM): 0.409
relative viability (LCLC-103H; first compound 0.01 µM): 0.438
relative viability (LCLC-103H; first compound 0.03162 µM): 0.467
relative viability (LCLC-103H; first compound 0.1 µM): 0.351
relative viability (HCC-44; first compound 0.001 µM): 0.662
relative viability (HCC-44; first compound 0.003162 µM): 0.574
relative viability (HCC-44; first compound 0.01 µM): 0.613
relative viability (HCC-44; first compound 0.1 µM): 0.66
relative viability (LOU-NH91; first compound 0.001 µM): 0.376
relative viability (LOU-NH91; first compound 0.003162 µM): 1.11
relative viability (LOU-NH91; first compound 0.01 µM): 0.374
relative viability (LOU-NH91; first compound 0.03162 µM): 0.384
relative viability (LOU-NH91; first compound 0.1 µM): 0.403
relative viability (NCI-H1651; first compound 0.001 µM): 0.571
relative viability (NCI-H1651; first compound 0.003162 µM): 0.616
relative viability (NCI-H1651; first compound 0.01 µM): 0.732
relative viability (NCI-H1651; first compound 0.03162 µM): 0.556
relative viability (NCI-H1651; first compound 0.1 µM): 0.249
relative viability (NCI-H2170; first compound 0.001 µM): 0.265
relative viability (NCI-H2170; first compound 0.003162 µM): 0.261
relative viability (NCI-H2170; first compound 0.03162 µM): 0.252
relative viability (NCI-H2170; first compound 0.1 µM): 0.315
relative viability (NCI-H1793; first compound 0.001 µM): 0.996
relative viability (NCI-H1793; first compound 0.003162 µM): 0.965
relative viability (NCI-H1793; first compound 0.01 µM): 1.07
relative viability (NCI-H1793; first compound 0.03162 µM): 0.903
relative viability (NCI-H1793; first compound 0.1 µM): 0.359
